Assays:
Type in all cases: cell-based, mouse
BMDM [1] = experiment: Mitochondrial function in BMDM (TMRM, MitoSOX, cellular ATP); details: for mtROS: metformin treated and ATP-stimulated macrophages, DMNQ 20 μM 16 hrs, MitoParaquat 5 μM 1 hr
BMDM [2] = experiment: Cytokine secretion by LPS-stimulated BMDM (ELISA)
Text: Paired antibodies (capture and detection) and standard recombinant mouse IL-1β (R&D Systems), and TNF and IL-6 (eBioscience) were used to determine mouse cytokine concentrations according to manufacturer's instructions.

NLRP3 inflammasome = NLRP3 inflammasome activation in LPS-primed BMDM; details: for restoration of Casp1 activation and IL-1β secretion: metformin treated and ATP-stimulated macrophages, DMNQ 20 μM 16 hrs, MitoParaquat 5 μM 1 hr
mtDNA = mtDNA synthesis and cytosolic Ox-mtDNA in BMDM; details: for restoration of cytoplasmic Ox-mtDNA or mtDNA synthesis: metformin treated macrophages, DMNQ 20 μM 16 hrs, MitoParaquat 5 μM 1 hr
Method: To image mtDNA synthesis, BMDM were stimulated with LPS ([…]) for 4 hrs in the presence of 10 μM EdU. Cells were then washed twice with sterile PBS and fixed in 4% PFA for 15 min followed by permeabilization with 0.02% Triton X-100 for 10 min. EdU staining was performed using a Click-iT EdU Microplate Assay Kit (Thermo Fisher Scientific). In brief, BMDMs were postfixed in EdU fixative for 5 min, and equal volumes of the EdU reaction cocktail, which was prepared immediately before use, were added to each chamber and left overnight. Primary antibody against the mitochondrial marker Atp5b was included in the EdU reaction cocktail. The next day, the BMDM were washed three times with PBS followed by incubation with secondary Alexa antibodies from Life Technologies or Jackson Immuno Research Laboratories. DAPI was used for nuclear counterstaining.
Total DNA was isolated using Allprep DNA/RNA Mini Kit (catalogue 80204, Qiagen) according to manufacturer's instructions. mtDNA was quantified by qPCR using primers specific for the mitochondrial D-loop region, cytochrome c oxidase (COX) or a specific region of mtDNA that is not inserted into nuclear DNA (non-NUMT) (Zhong et al., 2018). Nuclear DNA encoding Teri, 18S ribosomal RNA and B2m was used for normalization.
Cellular fractionation was performed using Mitochondrial Isolation kit (89874, ThermoScientific) according to manufacturer's instructions. Cytosolic mtDNA was analyzed as described (Nakahira et al., 2011). For the measurement of Ox-mtDNA, mtDNA was first purified using Allprep DNA/RNA mini kit (Qiagen) from the cytosolic fraction of BMDM as described above. The 8-OH-dG content of the mtDNA was then quantified using an 8-OHdG quantification kit (ab201734), per manufacturer's instructions.

BMDM [3] = experiment: Q-PCR quantitation of cytokine mRNAs in LPS-stimulated BMDM; design: Il6 mRNA induction: dose or concentration left out as unconfirmed; details: BMDM pretreated with SB202190 or SP600125 for 16 h, LPS
Method: RNA was extracted using AllPrep DNA/RNA Mini kit, and cDNA was synthesized using SuperScript™ VILO™ cDNA Synthesis Kit. mRNA expression was determined by QPCR in a CFX96 thermal cycler (Biorad) as described (Zhong et al., 2016). Data are presented in arbitrary units and calculated by the 2^(−ΔΔCT) method. Primer sequences were obtained from the NIH qPrimerDepot (http://mouseprimerdepot.nci.nih.gov) and provided by Integrated DNA technologies.

In the case of `Cc1nc(-c2nc(-c3ccc(OC(F)(F)F)cc3)no2)nn1Cc1cccc(N2CCC(S(C)(=O)=O)CC2)c1` [IACS-010759], the ROS production (BMDM [1]; BMDM, IACS-010759 20 μM 16 hrs, MitoSOX) is reported as “enhanced”, the IL-6 secretion (BMDM [2]; BMDM, IACS-010759 20 μM 16 hrs) is reported as “modest inhibition” and the TNF secretion (BMDM [2]; BMDM, IACS-010759 20 μM 16 hrs) is reported as “no effect”. The “IL-1β production and Casp1 and GSMDM cleavage” value (NLRP3 inflammasome; LPS-primed macrophages with NLRP3 activators, IACS-010759 20 μM 16 hrs) was “inhibited”, the “response to nigericin compared with other activators” value (NLRP3 inflammasome; LPS-primed macrophages, IACS-010759 20 μM 16 hrs) was “not as strongly inhibited” and the mtDNA synthesis (mtDNA; LPS-primed BMDM, IACS-010759 16 hrs) was “inhibited”.

With `COC1=C(OC)C(=O)c2ccccc2C1=O` [DMNQ, 2,3-dimethoxy-1,4-naphtoquinone] the mtROS (BMDM [1]) was “increased”, the “restoration of Casp1 activation and IL-1β secretion” value (NLRP3 inflammasome) was “neither one restored” and the “restoration of cytoplasmic Ox-mtDNA or mtDNA synthesis” value (mtDNA) was “neither parameter was restored”.

With `C[n+]1ccc(-c2cc[n+](CCCCCCCCCC[P+](c3ccccc3)(c3ccccc3)c3ccccc3)cc2)cc1.[I-].[I-].[I-]` [mitoParaquat] the mtROS (BMDM [1]) was “increased”, the “restoration of Casp1 activation and IL-1β secretion” value (NLRP3 inflammasome) was “neither one restored” and the “restoration of cytoplasmic Ox-mtDNA or mtDNA synthesis” value (mtDNA) was “neither parameter was restored”.

In the case of `Oc1ccc(-c2nc(-c3ccncc3)c(-c3ccc(F)cc3)[nH]2)cc1` [SB202190], the IL-6 secretion (BMDM [2]; BMDM pretreated with SB202190 or SP600125 for 16 h, LPS) is reported as “blocked” and the “Il6 mRNA induction” value (BMDM [3]) is reported as “blocked”.

— patent US12642780B2, “Methods and compositions to treat and prevent viral infections and acute respiratory distress syndrome” (priority 2020, dated 2026)
